Patent US20230151057A1, “LACTIC ACID BACTERIA GROWTH PROMOTER” (Asahi Group Holdings, Ltd., priority 2020, published 2023)

Tested on: Lactobacillus gasseri (FERM BP-11331)
Test: Growth-promoting effect on Lactobacillus gasseri in modified MRS medium (particle count)
Format: cell-based
Settings: Example 1, peptide 0.25 mg/mL, 37° C., 18 hours; for Particle concentration: inoculum 1.0×10^7 cells/mL; for Rate of increase: control without peptide = 100%
Description: Nitrogen sources in MRS medium were reduced to find a medium composition that achieves a total bacterial count of about 1.0×10^8 cell/mL to 1.0×10^9 cell/mL after culturing of each of the six bacterial strains Lactobacillus gasseri (FERNM BP-11331), Lactobacillus acidophilus (FERM BP-4981), Lactobacillus amylovorus (FERM BP-11255), Lactobacillus curvatus (NITE P-02033), Lactobacillus plantarum, and Lactobacillus brevis. This composition, named “modified MRS medium”, was used for the evaluation. Here, for the composition of the MRS medium, a composition described in a medium catalog provided by BD (Becton, Dickinson and Company) was used as a reference. The compositions of the MRS medium and the modified MRS medium are as follows. By chemical synthesis, 28 kinds of candidate peptides having the sequences shown below were provided. Each candidate peptide was added to the modified MRS medium at 0.25 mg/mL to provide a medium to be evaluated. The lactic acid bacterium Lactobacillus gasseri was inoculated at 1.0×10^7 cells/mL to the provided medium to be evaluated, and culture was carried out at a temperature of 37° C. for a culture period of 18 hours. The resulting culture was collected, and subjected to measurement of the particle concentration (particles/mL) as a characteristic value that can be used as an index of the bacterial cell growth, using a particle count analyzer (CDA-1000, Sysmex). The rate of increase (%) was calculated relative to a control value obtained using a medium to which no peptide was added, which was taken as 100%. Using the dipeptide LF (Leu-Phe) and an equimolar mixture of leucine (L) and phenylalanine (F), culture was carried out in the same manner as in Example 1, and the growth-promoting effects of the dipeptide and the amino acid mixture on the lactic acid bacterium were evaluated. Using a dipeptide (LF) as the peptide, the growth-promoting effect on a lactic acid bacterium was evaluated in the same manner except that the concentration of the dipeptide added was 0.1 mg/mL, 0.25 mg/mL, or 1.0 mg/mL.

Substance	Particle concentration	Rate of increase
HDDKHIIVD (listed as Saccharomyces cerevisiae) [His-Asp-Asp-Lys-His-Ile-Ile-Val-Asp]	2.25e+08 mL⁻¹	114%
Ile-Phe [IF]	2.01e+08 mL⁻¹	114%
Ile-Pro-Gln [IPQ]	1.82e+08 mL⁻¹	99%
Ile-Pro-Gly-Ile (IPGI; listed as Saccharomyces cerevisiae)	2.19e+08 mL⁻¹	119%
Ile-Pro-Ile-Gln (IPIQ; listed as Saccharomyces cerevisiae)	2.11e+08 mL⁻¹	115%
Ile-Pro-Ile-Thr (IPIT; listed as Saccharomyces cerevisiae)	–	121%
Ile-Pro-Thr [IPT]	1.79e+08 mL⁻¹	98%
Ile-Val-Glu [IVE]	1.81e+08 mL⁻¹	96%
Leu-Pro-Gln [LPQ]	1.97e+08 mL⁻¹	107%
Leu-Pro-Leu-Gly (LPLG; listed as Saccharomyces cerevisiae)	2.2e+08 mL⁻¹	120%
Leu-Pro-Thr [LPT]	1.9e+08 mL⁻¹	104%
Leu-Pro-Val-Leu (LPVL; listed as Saccharomyces cerevisiae)	2.07e+08 mL⁻¹	113%
Leu-Val-Glu [LVE]	1.96e+08 mL⁻¹	104%
PNVLPETE (listed as Saccharomyces cerevisiae) [Pro-Asn-Val-Leu-Pro-Glu-Thr-Glu]	2e+08 mL⁻¹	101%
Phe-Leu [FL]	1.98e+08 mL⁻¹	112%
SEYPPLG (listed as Saccharomyces cerevisiae) [Ser-Glu-Tyr-Pro-Pro-Leu-Gly]	2.36e+08 mL⁻¹	119%
Val-Pro-Ile [VPI]	2.11e+08 mL⁻¹	112%
Val-Pro-Leu [VPL]	2.01e+08 mL⁻¹	107%
Val-Pro-Val-Gly (VPVG; listed as Saccharomyces cerevisiae)	1.76e+08 mL⁻¹	102%
WDESRFQ (listed as Saccharomyces cerevisiae) [Trp-Asp-Glu-Ser-Arg-Phe-Gln]	2.38e+08 mL⁻¹	120%
